# Measurements from patent US6159940A, “Method for modulating hemopoiesis” (Immunotech Developments Inc., priority 1999, dated 2000).
# Experiments:
# [1] = Toxicity study: single 0.15 g/kg or 10 μg/kg for 5 days, cellular systems on day 14; assay type: in vivo, male mice
# Description: To determine the peptide toxicity, male mice received single injections of the peptide in the dose of 0.15 g per kg body weight, which was 15,000 times as large as the therapeutic dose with favourable effect in post-irradiation regeneration of hemopoietic progenitors. The second group of mice received daily peptide injections in the dose of 10 μg/kg (the therapeutical dose) for 5 days. […] On the 14-th day after the peptide injection 10 mice from each group were killed to determine the condition of their cellular systems. Nucleated cells were counted in spleen and thymus (per mg of organ weight), bone marrow, blood (per ml). Erythrocyte count and hemoglobin level were determined.
# tumor cells EL-4 = test: Thymoma EL-4 cells incubated with peptide and heated, transplanted to mice: tumor size; assay type: in vivo, C57B1 mice; settings: for Tumor size: EL-4, 13th day
# Description: Incubation of the tumor cells with the tested drugs were performed the same way as described above in the experiments with OU. After 18-hour incubation, the cells were washed in the medium RPMI, and then resuspended in the concentration of 5 ml/1 ml in plastic test tubes of total volume of 2 ml each. Then the cells were heated for 1 hour at 43 degrees Celsius, and transplanted under the back skin of the mice C57B1. The growth of the tumor was examined the same way as described above.
# Thymoma EL-4 cells = Thymoma EL-4 cells incubated with peptide and oxyurea, transplanted to mice: tumor growth and survival; assay type: in vivo, C57B1 mice
# Description: The Thymoma EL-4 cells were extracted from the abdomen cavity of C57B1 mice at the 7th day after transplantation. The suspension was washed by centrifugation in the medium RPMI. Then the cells were resuspended in the growth medium (RPMI+10% of embryo serum+0.1% penicillin/streptomycin) and were split in culture flasks 5 ml each ([…] per flask). 2 mg of the preparation were added (20 μl) to each probe. After 18 hours of incubation (37 degrees Celsius CO2), OU was added to the half of probes (1 mg per 5 ml). Incubation was done for 1 more hour in the same conditions and then cells were washed out by centrifugation in the medium RPMI. The precipitated cells were resuspended in calculation 1 ml per 0.2 ml of RPMI medium and then transplanted to the mice C57B1 under the back skin.
# The taking of the measurements of the size of the tumor was started after the knot became visible. The tumor was measured every day until it was impossible to measure. The survival ability of the mice was examined during 60 days after transplantation. Mice that survived after this period were considered to be cured. Each experimental group consisted of 6 animals.
# [2] = Local irritating effect, guinea pigs; assay type: in vivo
# Text: The local irritating effect of H-Ile-Glu-Trp-OH was studied in 20 guinea pigs and 5 rabbits.
# [3] = system: karyocytes in spleen and thymus; test: Nucleated cell counts in thymus and spleen per mg of organ weight, radiation immunodeficiency; assay type: in vivo, (CBA×C57BL)F1 mice; settings: 2 Gy
# Description: (§1) Females and male (CBA×C57BL)F1 mice, aged about 2.5 months weighing about 20 g, were irradiated with gamma-rays using a "Luch-1" apparatus. Immunological activity was assessed according to Jerne (Antibody Forming Cells count--AFC). T-cell count in spleen was determined by the method of spontaneous rosette formation with sheep erythrocytes (E-FRC). The peptide was injected intramuscularly.
# (§2) Mice were irradiated in a dose of 2 Gy, the peptide was injected in the dose of 10 μg/kg according to the following scheme (to determine T-cell count by the method of spontaneous rosette formation): 1 time--an hour after the irradiation; 2 times--an hour, and a day after irradiation; 3 times--an hour, a day, and two days after the irradiation; 4 times--an hour, a day, two days and three days after the irradiation. The intact mice recieved the peptide 3 or 4 times. The control group (2 Gy) recieved injections of physiological solution according to the same schedule. On completion of the treatment course, 10 mice from each group were immunized with sheep erythrocytes (SE) and 4-5 days later AFC counts were determined in their spleens. The rest of the mice were used to find T-cell count by the method of spontaneous rosette formation. The state of the organs of immune system (spleen and thymus) in mice with radiation immunodeficiency against the background of H-Ile-Glu-Trp-OH treatment was also listed by nucleated cell counts in thymus and spleen per mg of organ weight. AFC/mg Spleen weight is presented as an average of two experiments.
# [4] = Chronic toxicity, general state and pathomorphologic investigation; assay type: in vivo
# Text: The general state of the animals, behaviour, motor function, cardio-vascular, respiratory activity, liver and kidney functions were within the range of physiologic fluctuations.
# T-cell = T-cell count in spleen, spontaneous rosette formation with sheep erythrocytes (E-FRC); assay type: in vivo, (CBA×C57BL)F1 mice
# Description: as §1, §2
# [5] = system: lymphocytes in guinea pigs; test: E-rosette formation test after trypsin treatment; assay type: cell-based
# Text: The biological action of the novel peptide was studied in guinea pigs in the conventional E-rosette formation test.
# Acute toxicity in dogs = assay type: in vivo; settings: 6 dogs
# Description: To establish the safety of use of the peptides, toxicity tests were performed. Toxicity tests where performed in accordance Pharmacological Committee Russian Federation (RF) "guidelines for the pre-clinical study of general toxic activity of new pharmacological compounds". M., 1985.
# Acute toxicity was studied in 20 guinea pigs and 6 dogs. […] The drug has a wide therapeutic range.
# [6] = 10 mcg/kg × 5 injections, day 14
# [7] = 60 days after transplantation of treated EL-4 cells
substance,measurement,setting,value
H-Ile-Glu-Trp-OH,Survival for 30 days,[1]; 10 μg/kg daily for 5 days,Not an animal died
same,"Karyocyte Count, Spleen","[1]; 0.15 g/kg, day 14",2280 ± 30 10^3 /mg
same,"Karyocyte Count, Thymus","[1]; 0.15 g/kg, day 14",3030 ± 250 10^3 /mg
same,erythrocyte,"[1]; 0.15 g/kg, day 14",8100 ± 600 10^3
same,hemoglobin,"[1]; 0.15 g/kg, day 14",10.8 ± 0.7 g/dL
same,karyocyte count bone marrow,"[1]; 0.15 g/kg, day 14",2.39 ± 0.25 × 10^7 /femur
same,karyocytes %,"[1]; 0.15 g/kg, day 14",62.0 ± 3.4%
same,karyocytes (blood),"[1]; 0.15 g/kg, day 14",5.4 ± 0.7 10^3
same,karyocytes absolute,"[1]; 0.15 g/kg, day 14",3348
same,weight,"[1]; 0.15 g/kg, day 14",21-22.0
same,"Karyocyte Count, Spleen",[1]; [6],1760 ± 100 10^3 /mg
same,"Karyocyte Count, Thymus",[1]; [6],2780 ± 340 10^3 /mg
same,erythrocyte,[1]; [6],8400 ± 200 10^3
same,hemoglobin,[1]; [6],11.5 ± 0.2 g/dL
same,karyocyte count bone marrow,[1]; [6],1.94 ± 0.2 × 10^7 /femur
same,karyocytes %,[1]; [6],58.6 ± 3.6%
same,karyocytes (blood),[1]; [6],10.1 ± 0.8 10^3
same,weight,[1]; [6],21-22.5
same,LD50,[1]; not found,"> 15,000 as large as the therapeutical one"
same,growth of average weight by the end of the study,[1]; same as in control,2 g
same,Survival for 30 days,[1]; single injection 0.15 g per kg,Not an animal died
same,Tumor size,tumor cells EL-4; + Heating (1 hour at 43 degrees Celsius),No Tumor
same,Tumor size,tumor cells EL-4; no heating,188.7 mm squared
same,tumor formation,"tumor cells EL-4; in vitro treatment followed by heating, 21st day",no tumor formation was observed
same,% of Survival,Thymoma EL-4 cells; [7],16.6%
same,Number of Survived Mice From 6,Thymoma EL-4 cells; [7],1/6
same,extension of lifetime in combination with cytostatics,Thymoma EL-4 cells; mice with Thymoma EL-4,15 days
same,increase in lifetime versus control,Thymoma EL-4 cells; mice with Thymoma EL-4,4 days
same,tumor growth,"Thymoma EL-4 cells; thymoma cells incubated with H-Ile-Glu-Trp-OH, then OU",depression of the tumor growth on the 12th day is most definite
same,local irritating effect,[2],no local irritating effect
same,"Karyocyte Count, Spleen",[3]; 1 Injection,1120 ± 73 10^3 /mg
same,"Karyocyte Count, Thymus",[3]; 1 Injection,1860 ± 200 10^3 /mg
same,"Karyocyte Count, Spleen",[3]; 2 Injection,890 ± 80 10^3 /mg
same,"Karyocyte Count, Thymus",[3]; 2 Injection,1840 ± 380 10^3 /mg
same,"Karyocyte Count, Spleen",[3]; 3 Injection,980 ± 80 10^3 /mg
same,"Karyocyte Count, Thymus",[3]; 3 Injection,2590 ± 400 10^3 /mg
same,"Karyocyte Count, Spleen",[3]; 4 Injection,1160 ± 100 10^3 /mg
same,"Karyocyte Count, Thymus",[3]; 4 Injection,2480 ± 280 10^3 /mg
same,pathomorphologic investigation (with histologic investigation of organs),[4]; chronic toxicity,failed to find any pathologic processes
same,side effects,[4]; doses 10-100 times as large as the therapeutic ones,no side effects were observed
same,"T-Cell Count, column 1","T-cell; 2 Gy, 1 Injection",34.5 ± 1.7 10^3 /mg Spleen
same,"T-Cell Count, column 1","T-cell; 2 Gy, 2 Injection",35.6 ± 1.8 10^3 /mg Spleen
same,"T-Cell Count, column 1","T-cell; 2 Gy, 3 Injection",45.3 ± 3.4 10^3 /mg Spleen
same,"T-Cell Count, column 2","T-cell; 2 Gy, 3 Injection",23.2 ± 3.7 10^3 /mg Spleen
same,"T-Cell Count, column 1","T-cell; 2 Gy, 4 Injection",48.4 ± 2.5 10^3 /mg Spleen
same,"T-Cell Count, column 2","T-cell; 2 Gy, 4 Injection",13.0 ± 0.8 10^3 /mg Spleen
same,"T-Cell Count, column 2","T-cell; intact mice, 3 Injections",12.7 ± 1.5 10^3 /mg Spleen
same,"T-Cell Count, column 2","T-cell; intact mice, 4 Injections",18.7 ± 5.8 10^3 /mg Spleen
same,in vitro activity relative to other known compounds,[5],10^3 times
same,E-rosette formation after treatment with trypsin and compound,[5]; 10^-6 mg/ml,61.4
same,E-rosette formation after treatment with trypsin and compound,[5]; 10^-7 mg/ml,63.9
same,E-rosette formation after treatment with trypsin and compound,[5]; 10^-8 mg/ml,64.8
same,E-rosette formation after treatment with trypsin and compound,[5]; 10^-9 mg/ml,60.2
same,E-rosette formation after treatment with trypsin and compound,[5]; 10^-10 mg/ml,37.5
same,E-rosette formation after treatment with trypsin and compound,[5]; 10^-11 mg/ml,40.0
same,E-rosette formation after treatment with trypsin and compound,[5]; 10^-12 mg/ml,34.3
same,acute toxicity,Acute toxicity in dogs,No toxic effects were observed
